8 compounds from patent US12662465B2, “EGFR inhibitors” (Blueprint Medicines Corporation, priority 2021, dated 2026) can be followed below.

Where two headings read alike, the source gives them in different places.

One experiment has as its target T1, EGFR L858R (Homo sapiens, UniProt P00533, L858R).
T1 construct: purchased SignalChem E10-122BG
Briefly: Biochemical EGFR inhibition assay (Caliper mobility shift), EGFR L858R. The note with it: read-out: Enz EGFR_L858R IC50.

Another experiment concerns the target T2, EGFR (d746-750) (Homo sapiens, UniProt P00533, DEL746-750).
T2 construct: purchased SignalChem E10-122JG
Briefly: Biochemical EGFR inhibition assay (Caliper mobility shift), EGFR (d746-750). As to conditions: read-out: Enz EGFR_Exon19-del746-750 IC50.

For experiment [1], the target named is intracellular phosphorylation of EGFR (Tyr1068) in PC-9 cells (Ex19Del) (Homo sapiens, UniProt P00533, DEL746-750). The experiment is described as follows: PC-9 pEGFR AlphaLISA assay. Type of experiment: cell-based. The note with it: 4 hours compound incubation, read-out: Ext pEGFR_PC-9 Ex19Del IC50.
Setting [2] is: 1.0 mM ATP or ATP Km, room temperature (25° C.).

T2 sequence (P00533 with tags, fused parts or gaps DEL746-750 limits assumed): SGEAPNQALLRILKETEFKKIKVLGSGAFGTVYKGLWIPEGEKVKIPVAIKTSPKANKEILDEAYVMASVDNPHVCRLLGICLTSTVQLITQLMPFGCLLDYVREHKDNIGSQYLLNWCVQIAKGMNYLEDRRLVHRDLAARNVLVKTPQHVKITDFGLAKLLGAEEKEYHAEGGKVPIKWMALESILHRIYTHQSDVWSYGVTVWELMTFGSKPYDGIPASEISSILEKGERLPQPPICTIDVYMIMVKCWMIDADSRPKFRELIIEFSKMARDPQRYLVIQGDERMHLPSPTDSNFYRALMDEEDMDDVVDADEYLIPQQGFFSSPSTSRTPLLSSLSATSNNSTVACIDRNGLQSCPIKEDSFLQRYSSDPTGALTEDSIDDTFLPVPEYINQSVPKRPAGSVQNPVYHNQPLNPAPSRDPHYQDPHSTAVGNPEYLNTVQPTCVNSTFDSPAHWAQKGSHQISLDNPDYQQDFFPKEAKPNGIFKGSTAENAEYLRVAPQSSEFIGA
Chain of intracellular phosphorylation of EGFR (Tyr1068) in PC-9 cells (Ex19Del) (P00533 with tags, fused parts or gaps DEL746-750): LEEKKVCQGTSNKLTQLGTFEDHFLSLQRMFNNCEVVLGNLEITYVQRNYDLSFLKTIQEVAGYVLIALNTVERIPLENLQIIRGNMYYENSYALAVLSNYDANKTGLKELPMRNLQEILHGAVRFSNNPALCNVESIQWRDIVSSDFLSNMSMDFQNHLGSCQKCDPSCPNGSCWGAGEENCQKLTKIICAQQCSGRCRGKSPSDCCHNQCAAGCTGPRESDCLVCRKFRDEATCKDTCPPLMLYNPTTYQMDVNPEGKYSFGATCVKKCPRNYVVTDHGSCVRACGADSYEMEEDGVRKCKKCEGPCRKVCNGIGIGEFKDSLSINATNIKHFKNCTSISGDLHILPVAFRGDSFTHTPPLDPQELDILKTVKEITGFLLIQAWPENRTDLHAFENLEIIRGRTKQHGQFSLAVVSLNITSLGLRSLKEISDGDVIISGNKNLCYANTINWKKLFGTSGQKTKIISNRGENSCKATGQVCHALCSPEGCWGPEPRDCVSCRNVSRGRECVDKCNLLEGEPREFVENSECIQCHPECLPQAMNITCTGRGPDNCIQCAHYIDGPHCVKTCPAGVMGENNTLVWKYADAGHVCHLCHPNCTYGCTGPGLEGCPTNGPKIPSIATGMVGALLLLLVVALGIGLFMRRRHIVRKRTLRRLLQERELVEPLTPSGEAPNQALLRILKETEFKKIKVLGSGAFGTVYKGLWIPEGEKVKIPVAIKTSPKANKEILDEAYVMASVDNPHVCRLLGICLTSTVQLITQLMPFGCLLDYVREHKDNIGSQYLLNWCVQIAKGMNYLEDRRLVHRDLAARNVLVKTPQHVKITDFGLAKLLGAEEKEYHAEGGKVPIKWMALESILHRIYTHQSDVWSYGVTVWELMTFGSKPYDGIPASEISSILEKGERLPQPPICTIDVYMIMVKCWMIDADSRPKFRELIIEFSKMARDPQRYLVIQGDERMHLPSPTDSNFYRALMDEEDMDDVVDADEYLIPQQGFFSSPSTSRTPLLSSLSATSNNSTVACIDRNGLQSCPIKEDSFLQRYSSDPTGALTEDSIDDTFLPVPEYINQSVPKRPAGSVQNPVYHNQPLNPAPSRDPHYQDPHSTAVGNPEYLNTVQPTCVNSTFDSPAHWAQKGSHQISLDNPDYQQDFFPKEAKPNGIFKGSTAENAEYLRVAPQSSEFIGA
T1 sequence (P00533 25-1210 L858R): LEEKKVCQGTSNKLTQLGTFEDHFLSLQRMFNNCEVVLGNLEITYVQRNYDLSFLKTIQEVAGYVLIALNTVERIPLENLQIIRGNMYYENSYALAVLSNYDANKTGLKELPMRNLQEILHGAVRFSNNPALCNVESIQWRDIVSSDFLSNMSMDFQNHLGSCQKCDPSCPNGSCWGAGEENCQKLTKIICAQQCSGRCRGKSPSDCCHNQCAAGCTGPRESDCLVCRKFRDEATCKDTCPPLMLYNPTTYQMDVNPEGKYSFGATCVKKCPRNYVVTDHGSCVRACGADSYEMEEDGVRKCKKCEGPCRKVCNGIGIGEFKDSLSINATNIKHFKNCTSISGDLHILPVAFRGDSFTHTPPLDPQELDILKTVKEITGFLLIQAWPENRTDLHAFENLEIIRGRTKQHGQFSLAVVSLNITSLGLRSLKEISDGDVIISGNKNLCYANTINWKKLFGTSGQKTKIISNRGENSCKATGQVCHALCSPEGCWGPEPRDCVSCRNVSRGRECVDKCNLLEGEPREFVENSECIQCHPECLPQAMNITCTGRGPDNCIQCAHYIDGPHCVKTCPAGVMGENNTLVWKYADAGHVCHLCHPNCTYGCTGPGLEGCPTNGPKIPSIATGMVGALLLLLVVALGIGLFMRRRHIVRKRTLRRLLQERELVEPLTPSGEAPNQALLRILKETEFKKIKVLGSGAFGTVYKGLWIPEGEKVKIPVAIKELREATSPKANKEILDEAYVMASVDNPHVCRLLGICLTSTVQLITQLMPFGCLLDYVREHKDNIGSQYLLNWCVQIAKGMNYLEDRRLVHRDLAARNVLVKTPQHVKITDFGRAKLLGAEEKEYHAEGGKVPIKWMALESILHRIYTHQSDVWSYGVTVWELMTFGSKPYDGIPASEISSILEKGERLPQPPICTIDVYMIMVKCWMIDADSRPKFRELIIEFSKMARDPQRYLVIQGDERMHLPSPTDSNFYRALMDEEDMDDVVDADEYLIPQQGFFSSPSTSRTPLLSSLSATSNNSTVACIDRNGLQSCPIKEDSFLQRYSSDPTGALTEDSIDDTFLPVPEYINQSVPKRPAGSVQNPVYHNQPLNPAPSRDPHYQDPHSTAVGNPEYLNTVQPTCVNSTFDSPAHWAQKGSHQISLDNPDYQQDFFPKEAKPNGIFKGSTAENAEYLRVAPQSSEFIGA

As to `C[C@@H](Oc1cc(-c2cnn(C)c2)cc2ncnc(Nc3c(F)cc4ncccc4c3F)c12)C1COC1` [Example 8, (R)—N-(5,7-difluoroquinolin-6-yl)-7-(1-methyl-1H-pyrazol-4-yl)-5-(1-(oxetan-3-yl)ethoxy)quinazolin-4-amine], the IC50 on EGFR L858R is below 10 nM; on EGFR (d746-750), below 10 nM; in experiment [1], at most 10 nM.
Turning to `C[C@@H](CN(C)C)Oc1cc(-c2cnn(C)c2)cc2ncnc(Nc3ccc4ncccc4c3)c12` (single isomer, unassigned) [Example 44, (S)-5-((1-(dimethylamino)propan-2-yl)oxy)-7-(1-methyl-1H-pyrazol-4-yl)-N-(quinolin-6-yl)quinazolin-4-amine or (R)-5-((1-(dimethylamino)propan-2-yl)oxy)-7-(1-methyl-1H-pyrazol-4-yl)-N-(quinolin-6-yl)quinazolin-4-amine], the 50% inhibitory concentration (IC50) at EGFR L858R (setting [2]) was below 10 nM; on EGFR (d746-750) (setting [2]), below 10 nM; in experiment [1], at most 10 nM.
With `CC(Oc1cc(-c2cnn(C)c2)cc2ncnc(Nc3ccc4ncccc4c3F)c12)C1(N(C)C)COC1` (stereo not drawn) [Example 142, 5-(1-(3-(dimethylamino)oxetan-3-yl)ethoxy)-N-(5-fluoroquinolin-6-yl)-7-(1-methyl-1H-pyrazol-4-yl)quinazolin-4-amine], the half-inhibitory concentration (IC50) is below 10 nM at EGFR L858R, below 10 nM on EGFR (d746-750) and at most 10 nM in experiment [1].
For `[2H]c1ccc2cc(Nc3ncnc4cc(-c5cnn(C)c5)cc(O[C@H](C)CN(C)C)c34)ccc2n1` [Example 156, (R)-5-((1-(dimethylamino)propan-2-yl)oxy)-7-(1-methyl-1H-pyrazol-4-yl)-N-(quinolin-6-yl-2-d)quinazolin-4-amine], the concentration for half-maximal inhibition (IC50) was below 10 nM at EGFR L858R, below 10 nM at EGFR (d746-750) and at most 10 nM in experiment [1].
Take `CO[C@@H]1CCN(c2cc3ncnc(Nc4ccc5ncccc5c4F)c3c(O[C@H](C)CN(C)C)n2)C1` [Example 76, 5—(((R)-1-(dimethylamino)propan-2-yl)oxy)-N-(5-fluoroquinolin-6-yl)-7-((R)-3-methoxypyrrolidin-1-yl)pyrido[4,3-d]pyrimidin-4-amine]: the concentration for half-maximal inhibition (IC50) is below 10 nM on EGFR L858R, below 10 nM at EGFR (d746-750) and at most 10 nM in experiment [1].
Consider `CN(C)C[C@@H](Oc1cc(-c2cnn(C)c2)cc2ncnc(Nc3ccc4ncccc4c3F)c12)C(F)F` (single isomer, unassigned) [Example 38, (R)-5-((3-(dimethylamino)-1,1-difluoropropan-2-yl)oxy)-N-(5-fluoroquinolin-6-yl)-7-(1-methyl-1H-pyrazol-4-yl)quinazolin-4-amine or (S)-5-((3-(dimethylamino)-1,1-difluoropropan-2-yl)oxy)-N-(5-fluoroquinolin-6-yl)-7-(1-methyl-1H-pyrazol-4-yl)quinazolin-4-amine], for which the IC50 on EGFR L858R (setting [2]) was 10.1 to 50 nM; at EGFR (d746-750) (setting [2]) it was below 10 nM; in experiment [1], 10.1 to 50 nM.
Consider `COc1cn(C)nc1-c1cc(O[C@H](C)CN(C)C)c2c(Nc3ccc4ncccc4c3F)ncnc2c1` [Example 45, (R)-5-((1-(dimethylamino)propan-2-yl)oxy)-N-(5-fluoroquinolin-6-yl)-7-(4-methoxy-1-methyl-1H-pyrazol-3-yl)quinazolin-4-amine], for which the IC50 on EGFR L858R is below 10 nM; at EGFR (d746-750) it was below 10 nM; in experiment [1], at most 10 nM.
In the case of `C[C@H](Oc1cc(-c2cnn(C)c2)cc2ncnc(Nc3ccc4ncccc4c3F)c12)C1COC1` (single isomer, unassigned) [Example 2, (S)—N-(5-fluoroquinolin-6-yl)-7-(1-methyl-1H-pyrazol-4-yl)-5-(1-(oxetan-3-yl)ethoxy)quinazolin-4-amine or (R)—N-(5-fluoroquinolin-6-yl)-7-(1-methyl-1H-pyrazol-4-yl)-5-(1-(oxetan-3-yl)ethoxy)quinazolin-4-amine], the IC50 was below 10 nM on EGFR L858R (setting [2]), below 10 nM at EGFR (d746-750) (setting [2]) and at most 10 nM in experiment [1].
